Reference: patent US10898873B2, “Lecithin compositions and methods of making and using such lecithin compositions” (Archer Daniels Midland Company, priority 2015, dated 2021)

Experiment: Solubility of sorbitol in ethanol
Format: physicochemical
Text: Sugar alcohols can become heavily supersaturated upon cooling. When water is slowly replaced with ethanol, there can be a significant change in the maximum concentration at which the solute is completely soluble. In this example, blends of a 70% sorbitol solution and ethanol were made.

OC[C@@H](O)[C@@H](O)[C@H](O)[C@@H](O)CO [sorbitol]
clarity of sorbitol/ethanol blend (70% sorbitol solution and ethanol, ratio 70:30): completely clear
clarity of sorbitol/ethanol blend (blends with greater than 30% ethanol): crystallization of the sorbitol
